{"source": "paper PMC6079084", "about": "“Capacity for instantaneous catabolism of preferred and non-preferred carbon sources in Escherichia coli and Bacillus subtilis” (Scientific Reports, 2018)", "molecules": {"B1": {"name": "PycA (Bacillus subtilis subsp. subtilis str. 168) (protein)", "chain": "SQQSIQKVLVANRGEIAIRIFRACTELNIRTVAVYSKEDSGSYHRYKADEAYLVGEGKKPIDAYLDIEGIIDIAKRNKVDAIHPGYGFLSENIHFARRCEEEGIVFIGPKSEHLDMFGDKVKAREQAEKAGIPVIPGSDGPAETLEAVEQFGQANGYPIIIKASLGGGGRGMRIVRSESEVKEAYERAKSEAKAAFGNDEVYVEKLIENPKHIEVQVIGDKQGNVVHLFERDCSVQRRHQKVIEVAPSVSLSPELRDQICEAAVALAKNVNYINAGTVEFLVANNEFYFIEVNPRVQVEHTITEMITGVDIVQTQILVAQGHSLHSKKVNIPEQKDIFTIGYAIQSRVTTEDPQNDFMPDTGKIMAYRSGGGFGVRLDTGNSFQGAVITPYYDSLLVKLSTWALTFEQAAAKMVRNLQEFRIRGIKTNIPFLENVAKHEKFLTGQYDTSFIDTTPELFNFPKQKDRGTKMLTYIGNVTVNGFPGIGKKEKPAFDKPLGVKVDVDQQPARGTKQILDEKGAEGLANWVKEQKSVLLTDTTFRDAHQSLLATRIRSHDLKKIANPTAALWPELFSMEMWGGATFDVAYRFLKEDPWKRLEDLRKEVPNTLFQMLLRSSNAVGYTNYPDNVIKEFVKQSAQSGIDVFRIFDSLNWVKGMTLAIDAVRDTGKVAEAAICYTGDILDKNRTKYDLAYYTSMAKELEAAGAHILGIKDMAGLLKPQAAYELVSALKETIDIPVHLHTHDTSGNGIYMYAKAVEAGVDIIDVAVSSMAGLTSQPSASGFYHAMEGNDRRPEMNVQGVELLSQYWESVRKYYSEFESGMKSPHTEIYEHEMPGGQYSNLQQQAKGVGLGDRWNEVKEMYRRVNDMFGDIVKVTPSSKVVGDMALYMVQNNLTEKDVYEKGESLDFPDSVVELFKGNIGQPHGGFPEKLQKLILKGQEPITVRPGELLEPVSFEAIKQEFKEQHNLEISDQDAVAYALYPKVFTDYVKTTESYGDISVLDTPTFFYGMTLGEEIEVEIERGKTLIVKLISIGEPQPDATRVVYFELNGQPREVVIKDESIKSSVQERLKADRTNPSHIAASMPGTVIKVLAEAGTKVNKGDHLMINEAMKMETTVQAPFSGTIKQVHVKNGEPIQTGDLLLEIEKA", "notes": "full-length, N-terminal His6-Gly3 tag (from primer), recombinant in E. coli BW25113, pTrc99KK, Ni-NTA"}}, "key": {"PfkA": {"target": "T1, PfkA (Bacillus subtilis, UniProt O34529)", "T1 construct": "full-length, N-terminal His6-Gly3 tag (from primer), recombinant in E. coli BW25113, pTrc99KK, Ni-NTA", "T1 sequence (O34529 2-319)": "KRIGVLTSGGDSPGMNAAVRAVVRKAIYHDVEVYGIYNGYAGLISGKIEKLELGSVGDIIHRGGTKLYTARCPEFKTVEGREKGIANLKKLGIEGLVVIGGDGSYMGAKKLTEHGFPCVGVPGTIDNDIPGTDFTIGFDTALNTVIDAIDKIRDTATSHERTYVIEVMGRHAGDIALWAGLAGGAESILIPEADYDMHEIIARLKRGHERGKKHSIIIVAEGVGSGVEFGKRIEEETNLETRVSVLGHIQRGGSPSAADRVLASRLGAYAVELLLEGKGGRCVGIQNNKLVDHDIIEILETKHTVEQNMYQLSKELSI", "test": "coupled spectrophotometric assay, NADH at […] nm", "format": "biochemical"}, "purified protein": {"substrate": "CC(=O)C(=O)O", "test": "purified protein", "format": "biochemical, Bacillus subtilis", "details": "1 mM ATP, 0.05 mM acetyl-CoA, 15 mM KHCO3, 7 mM MgSO4, 135 mM TEA pH 8, room temperature, pyruvate 0.04-5.0 mM"}}}
{"molecule": "C=C(OP(=O)(O)O)C(=O)O", "note": "[PEP, phosphoenolpyruvate]", "values": [{"measurement": "Ki", "setting": "PfkA", "value": 40, "unit": "µM"}]}
{"molecule": "B1", "values": [{"measurement": "Km", "setting": "purified protein", "value": 100, "unit": "µM"}]}
